PMC8919051, “Metabolome and Whole-Transcriptome Analyses Reveal the Molecular Mechanisms Underlying Hypoglycemic Nutrient Metabolites Biosynthesis in Cyclocarya paliurus Leaves During Different Harvest Stages” (Frontiers in Nutrition, 2022)

Target: α-amylase (EC 3.2.1.1)
Experiment: α-amylase activity kit, colorimetric at […] nm
Assay type: biochemical

| SMILES | IC50 |
| --- | --- |
| O=C(/C=C/c1ccc(O)c(O)c1)O[C@@H]1C[C@@](O)(C(=O)O)C[C@@H](O)[C@@H]1O [neochlorogenic acid] | 230 µM |
| COc1cc(C(=O)O)ccc1O [vanillic acid] | 330 µM |
